Results taken from US20070105782A1, “Protectant Combinations for Reducing Toxicities” (BOARD OF TRUSTEES OF SOUTHERN ILLINOIS UNIVERSITY, priority 2005, published 2007).

How the values were obtained:
male Wistar rats = details: pretreated 30 minutes prior to CDDP infusion
Description: Complete data sets are obtained for five groups of five male Wistar rats (280-421 g). All animals are anesthetized with 1 ml/mg IM of Rompun cocktail (a solution containing 86.21 mg/ml ketamine and 2.76 mg/ml xylazine) prior to all injections and testing. Anesthesia is supplemented as needed with half doses throughout testing. The five groups include: a treated control group which received a dose of CDDP dissolved in normal sterile saline (1 mg of CDDP/ml normal saline; solution pH 6.3) administered by i.p. infusion with a Harvard Apparatus Infusion Pump, over a 30 minute period, an untreated control group that received an equivalent volume of normal saline (pH 6.5) instead of CDDP, and three experimental groups that receive various doses of protectant combination (comprising two or more of methionine protectant agents, carnitine, N-acetylcysteine, magnesium ions, lipoic acid, ebselen, glutathione, and glutathione ester) within the ranges described below dissolved in 3-5 ml of normal saline (solution pH 6.6) delivered by slow (over 1-2 minutes) i.p. injection 30 minutes prior to the same CDDP infusion as the treated control group. Both CDDP (purchased from Sigma Chemical Co., St. Louis) and the protectant combinations are freshly prepared before each experiment.

[1] = cited from earlier work

## CSCC[C@@H](N)C(=O)O [D-methionine]
Male Wistar rats
  survival until the end of the study period: all of the animals in each of these groups are expected to survive
[1]; humans, except in L-methionine deprivation
  excreted without conversion to the L-isomer: 60-70%
[1]; in the human
  plasma levels compared with L-methionine: higher plasma levels than L-methionine
